Source: patent US7307166B1, “Oxpurine nucleosides and their congeners, and acyl, derivatives thereof, for improvement of hematopoiesis” (Wellstat Therapeutics Corporation, priority 1987, dated 2007)

How the values were obtained:
Type in all cases: in vivo, mouse
Balb/C female mice = assay: Hematopoietic recovery after cyclophosphamide in mice (spleen weight, blood cell counts)
male CDF8F1 mice = assay: Doxorubicin-induced myelosuppression
Experimental: Doxorubicin (Adriamycin) is a widely-used anticancer agent effective against breast carcinoma, sarcomas, small-cell lung cancer, ovarian cancer, thyroid cancer, Hodgkin's Disease and non-Hodgkins lymphoma. Its clinical application is limited by its cardiac and hematologic toxicities. A study was conducted to assess the effect of N^2 3′,5′-tripalmitoyldeoxyguanosine (PdG) in reducing the hematologic toxicity of doxorubicin. Eighty male CDF8F1 mice were divided into three groups. One group received no treatment and served as basal control animals. Animals in the other two groups were each given a single dose of doxorubicin at a dose of 11 mg/kg by intraperitoneal injection. Beginning 24 hours later, animals in the two groups received three daily doses by intraperitoneal injection of either PdG or vehicle only. Blood samples were obtained by retro-orbital eye bleed just prior to administration of doxorubicin and then 4, 8, 11 and 14 days thereafter. Complete blood cell counts with differential were determined.

IFN-gamma = assay: LPS-induced serum interferon-gamma (ELISA)
Experimental: (§1) Sixty-three female Balb/C mice were randomly assigned to one of three groups. The animals in one group received a single daily dose of N^2,3′,5′-tripalmitoyldeoxyguanosine (PdG) (25 mg/kg, i.p.), while a second group received a single daily dose of the PdG treatment vehicle (control). The third group was left untreated. On the fourth day 100 μg salmonella typhimurium LPS was administered to all three groups. Serum samples were taken just prior to LPS administration (t=0) and at two, four, six, eight, ten, twelve, sixteen, and twenty hours after LPS administration. The samples were then frozen until the time of assay. Serum levels of TNF-alpha, and IFN-gamma were measured by ELISA.
(§2) In the tables below, units for cytokine concentrations are picograms per ml. A value of 0 indicates cytokine levels below the detection limit of the assay (50 to 100 pg/ml).

TNF-alpha = assay: LPS-induced serum TNF-alpha (ELISA)
Experimental: as §1, §2

[1] = Day 4 after doxorubicin 11 mg/kg
[2] = Day 8 after doxorubicin 11 mg/kg
[3] = Day 14 after doxorubicin 11 mg/kg
[4] = 0 hr after LPS 100 μg, PdG 25 mg/kg i.p. daily before, 0 = below detection limit

CCCCCCCCCCCCCCCC(=O)OC[C@H]1O[C@@H](n2cnc3c(=O)[nH]c(N)nc32)[C@H](O)[C@@H]1O
spleen weight (Balb/C female mice; Ex 38: day 7 after CP, guanosine 5, acyl derivatives 2.5 μmoles/mouse/day in 0.2% Tween 80 i.p. 6 days, Tween 80 0.2%): significantly larger spleens
total neutrophils (Balb/C female mice; Ex 41: day 7 after CP, treatment on only days 1 and 2, vs saline or Tween 80): significant increase
platelet number (Balb/C female mice; Ex 47: day 10 after CP, 2.5 μmoles/mouse/day): significantly greater

CCCCCCCCCCCCCCCC(=O)Nc1nc2c(ncn2[C@H]2C[C@H](OC(=O)CCCCCCCCCCCCCCC)[C@@H](COC(=O)CCCCCCCCCCCCCCC)O2)c(=O)[nH]1 [PdG, 3′,5′-O-N^2-tripalmitoyl-2′-deoxyguanosine]
Lymphocytes (male CDF8F1 mice; [1]): 8.07 ± 1.21 K/μL
Neutrophils (male CDF8F1 mice; [1]): 4.35 ± 0.73 K/μL
WBC (male CDF8F1 mice; Day 4 after doxorubicin 11 mg/kg i.p., PdG 3 daily i.p. doses from 24 h after): 13.2 ± 1.59 K/μL
Lymphocytes (male CDF8F1 mice; [2]): 1.63 ± 0.13 K/μL
Neutrophils (male CDF8F1 mice; [2]): 2.47 ± 0.28 K/μL
WBC (male CDF8F1 mice; [2]): 4.57 ± 0.35 K/μL
WBC (male CDF8F1 mice; Day 11 after doxorubicin 11 mg/kg): 3.95 ± 0.42 K/μL
Lymphocytes (male CDF8F1 mice; [3]): 2.0 ± 0.15 K/μL
Neutrophils (male CDF8F1 mice; [3]): 2.3 ± 0.26 K/μL
WBC (male CDF8F1 mice; [3]): 5.0 ± 0.39 K/μL
serum interferon-gamma (IFN-gamma; [4]): 0 picograms per ml
serum interferon-gamma (IFN-gamma; 2 hr after LPS, 0 = below detection limit): 0 picograms per ml
serum interferon-gamma (IFN-gamma; 4 hr after LPS): 825 ± 248 picograms per ml
serum interferon-gamma (IFN-gamma; 8 hr after LPS): 2129 ± 454 picograms per ml
serum interferon-gamma (IFN-gamma; 10 hr after LPS): 911 ± 279 picograms per ml
serum interferon-gamma (IFN-gamma; 12 hr after LPS, 0 = below detection limit): 0 picograms per ml
serum interferon-gamma (IFN-gamma; 16 hr after LPS, 0 = below detection limit): 0 picograms per ml
serum interferon-gamma (IFN-gamma; 20 hr after LPS, 0 = below detection limit): 0 picograms per ml
area under the curve (AUC) over the entire time course (IFN-gamma; PdG 25 mg/kg i.p.): significantly lower
peak IFN-gamma levels vs control values (IFN-gamma; PdG 25 mg/kg i.p.): five- to seven-fold lower
serum TNF-alpha (TNF-alpha; [4]): 0 picograms per ml
serum TNF-alpha (TNF-alpha; 2 hr after LPS): 1509 ± 86 picograms per ml
serum TNF-alpha (TNF-alpha; 4 hr after LPS): 529 ± 141 picograms per ml
serum TNF-alpha (TNF-alpha; 6 hr after LPS): 486 ± 63 picograms per ml
Peak TNF-alpha levels vs control groups (TNF-alpha; PdG 25 mg/kg i.p.): four-fold lower
